From patent publication US10906876B2, “Tetrahydroisoquinolines as selective NADPH oxidase 2 inhibitors” (University of Pittsburgh—Of the Commonwealth System of …, priority 2013, dated 2021)
Where two headings read alike, the source gives them in different places.

Legend:
Nox2 = molecular target: T1, Nox2 (Homo sapiens, UniProt P04839); assay: Cell-free superoxide production in lysed COS-Nox2 cells / Nox2 cell homogenate, cytochrome C assay; assay type: biochemical
T1 construct: expressed in transfected cells
T1 sequence (P04839 2-570 limits assumed): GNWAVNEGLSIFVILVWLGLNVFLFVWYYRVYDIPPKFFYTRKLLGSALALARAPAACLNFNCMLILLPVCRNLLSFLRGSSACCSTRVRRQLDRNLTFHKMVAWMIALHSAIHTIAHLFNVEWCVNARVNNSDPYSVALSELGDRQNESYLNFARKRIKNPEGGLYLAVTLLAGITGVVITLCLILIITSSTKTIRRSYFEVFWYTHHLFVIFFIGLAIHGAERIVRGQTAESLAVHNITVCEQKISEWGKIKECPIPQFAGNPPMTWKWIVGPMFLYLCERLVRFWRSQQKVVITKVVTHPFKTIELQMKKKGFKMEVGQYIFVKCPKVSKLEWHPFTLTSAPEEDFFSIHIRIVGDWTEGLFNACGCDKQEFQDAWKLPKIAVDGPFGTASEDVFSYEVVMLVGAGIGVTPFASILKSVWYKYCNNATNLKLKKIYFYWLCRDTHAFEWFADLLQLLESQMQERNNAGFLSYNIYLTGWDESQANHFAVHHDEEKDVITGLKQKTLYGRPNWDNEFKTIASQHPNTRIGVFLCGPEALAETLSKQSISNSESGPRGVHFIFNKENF
Method: COS-Nox2, COS-Nox1/NOXO1/NOXA1 and COS-22 cells were suspended to a concentration of 5×10^7 cells/ml in ice-cold disruption buffer (8 mM potassium, sodium phosphate buffer pH 7.0, 131 mM NaCl, 340 mM sucrose, 2 mM NaN3, 5 mM MgCl2, 1 mM EGTA, 1 mM EDTA and protease inhibitor cocktail) (Price et al., Blood, 2002, 99:2653-2661; Molshanski-Mor et al., Methods Mol. Biol., 2007, 412:385-428). The cells were lysed by freeze/thaw cycles (5 cycles), and passed through a 30-gauge needle 5 times to further lyse the cells. Cell disruption was confirmed by phase contrast microscopy. The cell lysate was centrifuged at 1000×g for 10 min at 4° C. to remove unbroken cells, nuclei and debris. Throughout all procedures, extreme care was taken to maintain the lysate at a temperature close to 0° C. Superoxide (O2^•−) production was calculated from the initial linear rate (over 10 min) of SOD-inhibitable cytochrome c reduction quantified at 550 nm using the extinction coefficient of 21.1 mM^−1 cm^−1 (Biotek Synergy 4 Hybrid Multi-Mode Microplate Reader). The oxidase assay buffer consisted of 65 mM sodium phosphate buffer (pH 7.0), 1 mM EGTA, 10 μM FAD, 1 mM MgCl2, 2 mM NaN3 and 0.2 mM cytochrome C. The components of the cell-free system were added in the following order: oxidase assay buffer, cell lysate (5×10^5 cell equivalents/well) and drugs at a final concentration as shown on individual graphs. The plates were placed on an orbital shaker to mix contents for 5 min at 120 movements/min at room temperature. LiDS, an established lipid activator of phagocyte cell-free system, was added at a concentration of 130 μM and O2^•− production was initiated by the addition of 180 μM NADPH.
Cell-free activity in lysed COS-Nox2 cells was promising, since compound 7 was also able to inhibit O2^•− production in a system in which assembly of active Nox2 subunits is achieved by treatment with the anionic amphiphile LiDS (lithium dodecyl sulfate) and the reaction is initiated by cofactor NADPH (Molshanski-Mor et al., Methods Mol. Biol. 2007, 412:385-428). COS-Nox2 cell lysate was preincubated with various concentrations of compound 7 for 15 min at 25° C. After the addition of 130 μM LiDS, O2^•− production was initiated by the addition of 180 μM NADPH and measured by the initial linear rate of SOD-inhibitable cytochrome C reduction. O2^•− production is expressed as nmol O2^•−/min/10^7 cell equivalents.
Cells were suspended to a concentration of 5×10^7 cells/ml in ice-cold disruption buffer (8 mM potassium, sodium phosphate buffer pH 7.0, 131 mM NaCl, 340 mM sucrose, 2 mM NaN3, 5 mM MgCl2, 1 mM EGTA, 1 mM EDTA and protease inhibitor cocktail). The cells were lysed by freeze/thaw cycles (5 cycles), and passed through a 30-gauge needle five times to further lyse the cells. Cell disruption was confirmed by phase contrast microscopy. The cell lysate was centrifuged at 1000×g for 10 min at 4° C. to remove unbroken cells, nuclei and debris. Throughout all procedures, extreme care was taken to maintain the lysate at a temperature close to 0° C.
(§1) Superoxide (O2^•−) production from cell homogenates was calculated from the initial linear rate (over 10 min) of SOD-inhibitable cytochrome c reduction quantified at 550 nm using the extinction coefficient of 21.1 mM-1 cm-1 (Biotek Synergy 4 Hybrid Multi-Mode Microplate Reader). The oxidase assay buffer consisted of 65 mM sodium phosphate buffer (pH 7.0), 1 mM EGTA, 10 μM FAD, 1 mM MgCl2, 2 mM NaN3 and 0.2 mM cytochrome C.

[1] = tested on: human pulmonary artery endothelial cells (HPAEC); assay: Superoxide production of HPAEC treated with high glucose; assay type: cell-based; conditions: 25 mM glucose 24 hr, 25 μM compound
Method: (§2) Cos-Nox2, Cos-Nox1, human fibroblasts were cultured in DMEM, 10% FBS-supplemented media, human pulmonary artery endothelial cells were cultured in EBM2media containing growth factors (Lonza) and rat neonatal cardiomyocytes were cultured in DMEM/F12 (50/50) media supplemented with 5% horse serum, 100 μM BrdU and Insulin-Transferrin-Selenium (ITS, Gibco).
as §1
Compounds 11g and 11h subsequently were tested in parenchymal cell lines where more than one Nox could be present and activated. Human pulmonary artery endothelial cells (HPAEC) were treated with high glucose (25 mM) for 24 hr in the presence or absence of the compounds. […] Under these conditions both compounds 11g and 11h attenuated the high glucose-stimulated superoxide production (FIG. 9).

[2] = tested on: human pulmonary artery endothelial cells (HPAEC); assay: ROS production of HPAEC treated with angiotensin II; assay type: cell-based; conditions: angiotensin II 24 hrs, 25 μM compound, preliminary data
Method: as §2

[3] = tested on: rat neonatal cardiomyocytes; assay: ROS production of rat neonatal cardiomyocytes treated with high glucose; assay type: cell-based; conditions: 25 mM glucose, 25 μM compound
Method: as §2
(§3) To evaluate the pre-clinical potential of compounds 11g and 11h, the effects of high levels of glucose, which induce the generation of reactive oxygen species in cardiomyocytes and may contribute to the development of cardiomyopathy in diabetes, were evaluated. […] Furthermore, both compound 11g and compound 11h were able to reduce cardiomyocyte hypertrophy associated with high glucose challenge (FIG. 16).

[4] = tested on: rat neonatal cardiomyocytes; assay: Hypertrophy of rat neonatal cardiomyocytes treated with high glucose; assay type: cell-based; conditions: 25 mM glucose, 25 μM compound
Method: as §2
Hypertrophy was assessed by measurement of cardiomyocytes length using ImageJ public domain software (developed by the National Institutes of Health).
as §3

[5] = cell-free system, data not shown, read-out: IC50 in a cell-free system

| IC50 (Nox2; Nox2 cell homogenate stimulated with LiDS, read-out: IC50 in ROS production by Nox2 cell homogenate) [nM] | IC50 (Nox2; [5]) [nM] | IC50 in cell homogenate lower than that for whole cells (Nox2; homogenate vs whole cells) [fold] | SMILES | LiDS-stimulated O2•− generation (Nox2; 6.3 μM compound, lysed COS-Nox2 cells, 130 μM LiDS, 180 μM NADPH) | High glucose-stimulated superoxide production [1] | AngII-stimulated ROS production [2] | High glucose-dependent ROS production in rat cardiomyocytes [3] | Cardiomyocyte hypertrophy with high glucose challenge [4] |
| --- | --- | --- | --- | --- | --- | --- | --- | --- |
|  |  |  | C=C(C)CC1NC2CC(C)(C)C1c1c(Br)cccc12 (racemic) [Compound 7, (±)-(1S,4R,9S)-5-Bromo-3,3-dimethyl-9-(2-methylallyl)-1,2,3,4-tetrahydro-1,4-(epimino-methano)-naphthalene] | almost non-stimulated levels |  |  |  |  |
| 32.4 ± 9 | ~30 | 100 | C=C(C)CC1C2c3c(Br)cccc3C(CC2(C)C)N1CCCCC (racemic) [Compound 11g, (±)-(1S,4R,9S)-5-Bromo-3,3-dimethyl-9-(2-methylallyl-10-pentyl-1,2,3,4-tetrahydro-1,4-(epiminomethano)naphthalene] |  | attenuated | differential effect | ameliorated | reduce |
|  | ~30 |  | C=C(C)CC1C2c3c(Br)cccc3C(CC2(C)C)N1Cc1cccs1 (racemic) [Compound 11h, (±)-(1S,4R,9S)-5-Bromo-3,3-dimethyl-9-(2-methylallyl)-10-(thiophen-2-ylmethyl)-1,2,3,4-tetrahydro-1,4-(epiminomethano)naphthalene] |  | attenuated | differential effect | ameliorated | reduce |
